The values below come from publication PMC6910946, “Multiple roles of Bet v 1 ligands in allergen stabilization and modulation of endosomal protease activity” (Allergy, 2019).

Entries after “also recorded” stand apart in the source; their conditions may differ. Read-outs that look alike come from different tables or passages of the source.

The target of data set [1] is T1, Bet_v_1 (endolysosomal proteases of microsomes) (Betula pendula, UniProt P15494).
T1 construct: made in house
T1 sequence (P15494 1-160): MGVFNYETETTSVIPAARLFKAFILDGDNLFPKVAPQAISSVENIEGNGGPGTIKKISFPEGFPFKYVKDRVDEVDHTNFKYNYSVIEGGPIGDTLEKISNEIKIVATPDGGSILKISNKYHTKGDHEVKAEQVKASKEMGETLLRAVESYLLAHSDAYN
The data set can be described thus: In vitro simulation of endolysosomal degradation of Bet v 1 with microsomes. It counts as biochemical. The note with it: for generation of the immunodominant T‐cell epitope (number of identified peptides) / accumulation of N‐terminal cluster peptides during Bet v 1 processing: 12 h degradation; for proteolytic stability of Bet v 1 toward endolysosomal proteases: ligand in 10× molar excess, 0-48 h, densitometric analysis of SDS‐PAGE. The procedure:
The endolysosomal degradation assay was performed with ligand‐bound (either DOC, PPE1, or Q3OS in 10× molar excess) and Bet_v_1 without ligands (apo‐Bet_v_1) as previously described.21 Recombinant human cathepsin S and human legumain were used in proteolytic degradation assays. Experimental details are described in the Appendix [Link], [Link].
The endolysosomal degradation assay was performed with ligand-bound (either DOC, PPE1, or Q3OS in 10× molar excess) and Bet v 1 without ligands (apo-Bet v 1) as previously described.^7 The protein (5 µg) was incubated with 7 µg of microsomes in 100 mM citrate buffer pH 4.8 and 2 mM dithiothreitol (DTT) for 0, 0.5, 1, 3, 6, 12, 24, and 48 h at 37°C. The different digestion preparations were analyzed by SDS-PAGE and quantitatively interpreted using Image Lab 4.0.1 Software (Bio-Rad). The generated peptides obtained after 12 h of digestion were analyzed using mass spectrometry with a Q-Exactive Orbitrap Mass Spectrometer (Thermo Fisher Scientific, Waltham, MA, USA), nanoelectrospray, and nano-HPLC (Dionex Ultimate 3000, Thermo Fisher Scientific).
For data analysis, the web-based application MSTools was used.^8 For the semi-quantitative analysis of the abundance of the generated peptides at 12 hours of degradation, the obtained peptide sequences were clustered into 7 groups according to their amino acid sequence (cluster 1, GVF-NYE-TET-TSV-IPA-ARL-FKA-F; cluster 2, AIL-DGD-NLF-PKV-APQ-A; cluster 3, AIS-SVE-NIE-GNG-GPG-TIK-KIS-FPE-G; cluster 4, FPF-KYV-KDR-VDE-VDH-TNF-K; cluster 5, YNY-SVI-EGG-PIG-DTL-EKI-SNE-IKI-VAT-PDG-GSI-LK; cluster 6, ISN-KYH-TKG-DHE-VKA-EQV-KAS-KEM-GET-LLR; and cluster 7, RAV-ESY-LLA-HSD-AYN), and the total sum of peak areas of all sequences per cluster was calculated (in percentage).

The subject of data set [2] is murine BMDCs / CD4+ T‐cell hybridoma cells specific for epitope Thr142‐Ala153. The data set can be described thus: T-cell proliferation assay: Bet v 1 epitope presentation by BMDCs to CD4+ T-cell hybridomas (IL-2). It counts as cell-based, mouse. The settings on record: Bet v 1 10 µg/mL with 10-fold molar excess of ligand; 16, 24, 32, 48 h. The procedure:
The ability of ligand‐loaded Bet_v_1 to induce IgE‐antigen cross‐linking and basophil degranulation was assessed by mediator‐release assays using rat basophil (RBL‐2H3) cells, transfected with the human high‐affinity IgE receptor (FcεRI), as previously described.2, 24 In vitro uptake of labeled Bet_v_1 was performed using CD11c^+ murine bone marrow–derived dendritic cells (BMDCs). The maturation of human monocyte‐derived dendritic cells (moDCs) was analyzed as previously described.2 T‐cell proliferation assays using CD4^+ T‐cell hybridomas were performed as previously described.17 A detailed description of the in vitro assays is available (Appendix [Link], [Link]).
In order to test the relevance of the identified Bet_v_1 ligands in processing and presentation by DCs in a time‐dependent manner, we incubated BMDCs with Bet_v_1 in complex with different ligands and detected the presentation of Bet_v_1 by using CD4^+ T‐cell hybridoma cells specific for the immune‐dominant T‐cell epitope (Thr142‐Ala153). T‐cell proliferation was monitored indirectly by IL‐2 secretion (Figure 5).
Bet v 1 was incubated over night with a 10-fold molar excess of either Q3OS, PPB1, PPE1, or DOC before incubation with murine BMDCs at a concentration of 10 μg/mL in BMDC medium (online supporting information). After 16, 24, 32, and 48h, DCs were washed and CD4^+ T-cell hybridomas specific for the immune-dominant epitope 142-153 of Bet v 1 were added to the culture at a ratio of 1:10 (DC:T-cell) for 24h^17. Supernatants were harvested and IL-2 levels were determined by ELISA (Invitrogen, Thermo Fisher Scientific, Waltham, MA, USA). As a reference, BMDCs were pulsed at each time point with different concentrations of peptide 142-153 and co-cultured with CD4^+ T-cell hybridomas. By interpolating in a standard curve, a µM peptide equivalent from the measured IL-2 was calculated from DCs pulsed with different peptide concentrations. The assays were carried out in triplicates.

Data set [3] has as its target T2, Bet_v_1 (Betula pendula, UniProt P15494).
T2 construct: made in house
T2 sequence (P15494 1-160): T1 sequence (P15494 1-160)
Briefly: Thermal stability and secondary structure of Bet v 1 by circular dichroism (CD). It counts as physicochemical, Betula verrucosa. The settings on record: for ΔCD: change of Tm of Bet v 1 versus no ligand; for increased melting point (T m) of Bet v 1 bound to ligand: CD and FTIR spectroscopy. The text has this:
Surface acoustic wave (SAW) technology and NMR spectroscopy were used to observe the interaction of Bet_v_1 with the selected compounds, including determination of the dissociation constant (K d). The influence of ligand binding on the secondary structure elements and the thermal stability of Bet_v_1 was monitored using circular dichroism (CD, JASCO J‐815 spectropolarimeter, Jasco) and Fourier transform infrared (FTIR) spectroscopy (Tensor II FTIR system, Bruker Optics Inc). A detailed description of these methods is available (Appendix [Link], [Link]).
The influence of ligand binding on the secondary structure elements and the thermal stability of Bet v 1 was addressed by circular dichroism (CD) and Fourier transform infrared (FTIR) spectroscopy. CD spectroscopy was performed with a JASCO J-815 spectropolarimeter fitted with a PTC-423S Peltier-type single position cell holder (Jasco, Tokyo, Japan) over the wavelength range 190 to 260 nm. For measurement, Bet v 1 with and without ligand was diluted in a 10 mM potassium phosphate buffer to a concentration of 0.1 mg/ml. The thermal stability analysis was recorded at 222 nm. The protein was denatured with a temperature slope of 1°C/min from 20 to 95°C.
(CD spectra are sensitive to the conformation of chiral molecules.)

Setting [4] is: 12 h incubation, mass spectrometry.
Where [5] appears, read: melting point of Bet v 1 with or without ligand, 222 nm.

As for `O=c1c(O[C@@H]2O[C@H](CO)[C@@H](O)[C@H](O)[C@H]2O[C@@H]2O[C@H](CO)[C@@H](O)[C@H](O)[C@H]2O)c(-c2ccc(O)c(O)c2)oc2cc(O)cc(O)c12` [Q3OS, quercetin 3‐O‐sophoroside], in data set [1], the “generation of the immunodominant T‐cell epitope (number of identified peptides)” value is “more efficient generation of the immunodominant T‐cell epitope” and the “proteolytic stability of Bet v 1 toward endolysosomal proteases” value (“proteolytic stability” for short) is reported as “only a weakly stabilizing effect over the first 12 hours”. In addition, the “diversity of peptides versus apo form of Bet v 1” value in data set [1] (setting [4]) is recorded as 2 fold. For the same molecule, the “MHCII presentation of Bet v 1 epitope (Thr142‐Ala153) on DCs, IL‐2 secretion” value (from here on “MHCII presentation of Bet v 1 epitope”) in data set [2] was “did not affect the presentation”. Further, the “secondary structure content of Bet v 1” value in data set [3] (CD and FTIR, Figure S4) is listed as “did not significantly alter its secondary structure content”. Further, the ΔCD result in data set [3] is “+0.36 °C”. The “T m CD” value in data set [3] (setting [5]) stood at 64.04 °C.
Take `C[C@H](CCC(=O)O)[C@H]1CC[C@H]2[C@@H]3CC[C@@H]4C[C@H](O)CC[C@]4(C)[C@H]3C[C@H](O)[C@]12C` [DOC, sodium deoxycholate, reference compound]: in data set [1], the “accumulation of N‐terminal cluster peptides during Bet v 1 processing” value is given as “preferentially accumulated the two N‐terminal cluster peptides”, the “generation of the immunodominant T‐cell epitope (number of identified peptides)” value is recorded as “more efficient generation of the immunodominant T‐cell epitope” and the “proteolytic stability” value is “enhanced proteolytic stability”. In data set [1] (setting [4]), the “Bet v 1 peptide diversity reduced to (versus apo form)” value is reported as 69.7%. Further, the “MHCII presentation of Bet v 1 epitope” value in data set [2] is given as “affected only after 48 hours”. Moreover, in data set [3], the “T m CD” value came to 67.44 °C, the “secondary structure content of Bet v 1” value is “did not significantly alter its secondary structure content” and the “increased melting point (T m) of Bet v 1 bound to ligand” value was “approximately 4 °C”.
Turning to `CCC1C(=O)CC(O)C1/C=C/C(O)CCCCCCCC(=O)O` (centres unmarked) [PPE1, E1 phytoprostanes], in data set [1], the “accumulation of N‐terminal cluster peptides during Bet v 1 processing” value is “preferentially accumulated the two N‐terminal cluster peptides” and the “proteolytic stability” value was “enhanced proteolytic stability”. For the same molecule, the “Bet v 1 peptide diversity reduced to (versus apo form)” value in data set [1] (setting [4]) is recorded as 53.9%. Besides, the “MHCII presentation of Bet v 1 epitope” value in data set [2] is “consistently affected the MHCII presentation; also recorded: unique reduction in the presentation of the T‐cell epitopes”. Besides, in data set [3], the “increased melting point (T m) of Bet v 1 bound to ligand” value is roughly 7 °C and the ΔCD entry was “+6.94 °C”. Further, the “secondary structure content of Bet v 1” value in data set [3] (CD and FTIR, Figure S4) is recorded as “did not significantly alter its secondary structure content”. The “T m CD” value in data set [3] (setting [5]) stood at 70.62 °C.
